Data reported in patent US20140357713A1, “ANTIMICROBIAL COMPOUNDS AND METHODS OF USE” (NexMed Holdings, Inc., priority 2012, published 2014).
Like-named read-outs stand apart in the source and are kept apart here.

How the values were obtained:
[1] = system: Staphulococcus aureus (ATCC 29213); experiment: Minimum inhibitory concentration (MIC) assay, Example 33; type: cell-based, Staphylococcus aureus; details: Staphylococcus aureus
Summary of the method: (§1)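 Broth microdilution MIC per CLSI guidelines, in CAMHB with serial 2-fold compound dilutions. Bacterial inocula were adjusted to a 0.5 McFarland standard, then diluted 1:100 and 1:2 in the wells. Plates were incubated at 35 °C, and the MIC was read according to CLSI.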

[2] = system: Candida albicans (ATCC 90029); experiment: as above; type: cell-based; details: Candida albicans
Summary of the method: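 Broth microdilution per CLSI guidelines in RPMI 1640; inoculum set to OD530 0.08–0.13, diluted 1:50 then 1:20 to 2× strength and mixed 1:2 with 2-fold serial compound dilutions. Incubated at 35° C; MIC read per CLSI.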

[3] = system: Aspergillus niger (CMCC 98003); experiment: as above; type: cell-based; details: Aspergillus niger
Summary of the method: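 Broth microdilution MIC per CLSI guidelines in RPMI 1640 with serial 2-fold compound dilutions. Spore suspension from sporulating colonies adjusted to OD530 0.09-0.13, diluted 1:50 as 2× inoculum and added 1:2 to drug wells; plates incubated at 35 °C and MIC read per CLSI.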

pH (Table 1) = type: physicochemical
[4] = system: Aspergillus niger (CMCC 98003); experiment: Time kill study, Example 33 (0 to 5 min); type: cell-based; details: 1×MIC
Method: Thirty compounds were tested for antimicrobial activity using standard procedures and standard strains for both the minimum inhibitory concentration (MIC) assay and a time kill study. Both the MIC assay and the time kill study were performed according to Clinical and Laboratory Standards Institute (CLSI) guidelines. Three bacteria strains, Escherichia coli (ATCC 25922), Pseudomonas aeruginosa (ATCC 27853), Staphulococcus aureus (ATCC 29213), and two fungus strains, Candida albicans (ATCC 90029) and Aspergillus niger (CMCC 98003), were used in the experiments.
The viable counts in Log10 CFU/mL at each time point were recorded.
Time kill studies. Strain suspensions were prepared as described above for the MIC test, and strain suspensions and compound solutions were mixed in the same volume. Samples were removed at specified times including 0 min, 30 sec, 1 min and 5 mins, were diluted in the test medium and streaked on agar. Colonies were counted after 24 to 48 hrs of incubation.
The MIC values for thirty compounds against Escherichia coli, Pseudomonas aeruginosa, Staphulococcus aureus, Candida albicans, and Aspergillus niger were recorded and are presented in Table 3 and Table 4.

[5] = system: Escherichia coli (ATCC 25922); experiment: Minimum inhibitory concentration (MIC) assay, Example 33; type: cell-based; details: Escherichia coli
Summary of the method: as §1

[6] = system: Pseudomonas aeruginosa (ATCC 27853); experiment: as above; type: cell-based; details: Pseudomonas aeruginosa
Summary of the method: as §1

[7] = system: Staphylococcus aureus (ATCC 29213); experiment: Time kill study, Example 33 (0 to 5 min); type: cell-based; details: 1×MIC
Summary of the method: (§2)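 Per CLSI guidelines, strain suspensions were mixed 1:1 by volume with compound solution; samples taken at 0 min, 30 sec, 1 min and 5 min were diluted and plated on agar. Colonies were counted after 24 to 48 hrs incubation and viable counts reported as Log10 CFU/mL.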

[8] = system: Escherichia coli (ATCC 25922); experiment: Time kill study, Example 33 (0 to 5 min); type: cell-based; details: 1×MIC
Summary of the method: as §2

[9] = system: Pseudomonas aeruginosa (ATCC 27853); experiment: Time kill study, Example 33 (0 to 5 min); type: cell-based; details: 1×MIC
Summary of the method: as §2

[10] = system: Candida albicans (ATCC 90029); experiment: Time kill study, Example 33 (0 to 5 min); type: cell-based; details: 1×MIC
Summary of the method: as §2

[11] = ATCC29213, Table 19 summary, read-out: MIC
[12] = ATCC29213, n = 1, read-out: MIC S. aureus
[13] = ATCC29213, n = 2, read-out: MIC S. aureus
[14] = ATCC90029, Table 19 summary, read-out: MIC
[15] = ATCC90029, n = 1, read-out: MIC Candida albicans
[16] = ATCC90029, n = 2, read-out: MIC Candida albicans
[17] = CMCC98003, Table 19 summary, read-out: MIC
[18] = CMCC98003, n = 1, read-out: MIC Aspergillus niger
[19] = CMCC98003, n = 2, read-out: MIC Aspergillus niger
[20] = ATCC25922, Table 19 summary of Example 33 and Example 35, read-out: MIC
[21] = ATCC25922, n = 1, read-out: MIC E. coli
[22] = ATCC25922, n = 2, read-out: MIC E. coli
[23] = ATCC27853, Table 19 summary, read-out: MIC
[24] = ATCC27853, n = 1, read-out: MIC P. aeruginosa
[25] = ATCC27853, n = 2, read-out: MIC P. aeruginosa

Row | SMILES | MIC [1, 11] [µg/mL] | MIC [1, 12] [µg/mL] | MIC [1, 13] [µg/mL] | MIC [2, 14] [µg/mL] | MIC [2, 15] [µg/mL] | MIC [2, 16] [µg/mL] | MIC [3, 17] [µg/mL] | MIC [3, 18] [µg/mL] | MIC [3, 19] [µg/mL] | pH (pH (Table 1)) | Viable counts, Aspergillus niger time kill study ([4]; 0.5 min) [Log10 CFU/mL] | Viable counts, Aspergillus niger time kill study ([4]; 1 min) [Log10 CFU/mL] | Viable counts, Aspergillus niger time kill study ([4]; 5 min) [Log10 CFU/mL] | Viable counts, Aspergillus niger time kill study ([4]; time 0) [Log10 CFU/mL] | MIC [5, 20] [µg/mL] | MIC [5, 21] [µg/mL] | MIC [5, 22] [µg/mL] | MIC [6, 23] [µg/mL] | MIC [6, 24] [µg/mL] | MIC [6, 25] [µg/mL] | further results
1 | CCCCCCCCCCCCOC(=O)C(C)NCCO.Cl (stereo not shown) [Nex-61, Dodecyl 2-((2-hydroxyethyl)amino)propanoate hydrochloride] | 50 | 50 | 50 | 12.5 | 12.5 | 12.5 | 50 | 50 | 25 | 1.50 | 5.30 | 5.16 | 5.11 | 5.36 | 780 | 780 | 1560 | 6250 | 6250 | 6250 | Viable counts, Staphylococcus aureus time kill study ([7]; 0.5 min): 6.15 Log10 CFU/mL; Viable counts, Staphylococcus aureus time kill study ([7]; 1 min): 6.07 Log10 CFU/mL; Viable counts, Staphylococcus aureus time kill study ([7]; 5 min): 5.54 Log10 CFU/mL; Viable counts, Staphylococcus aureus time kill study ([7]; time 0): 6.38 Log10 CFU/mL; Viable counts, Escherichia coli time kill study ([8]; 0.5 min): 5.54 Log10 CFU/mL; Viable counts, Escherichia coli time kill study ([8]; 1 min): 5.61 Log10 CFU/mL; Viable counts, Escherichia coli time kill study ([8]; 5 min): 4.9 Log10 CFU/mL; Viable counts, Escherichia coli time kill study ([8]; time 0): 5.78 Log10 CFU/mL; Viable counts, Pseudomonas aeruginosa time kill study ([9]; 0.5 min): 4 Log10 CFU/mL; Viable counts, Pseudomonas aeruginosa time kill study ([9]; 1 min): <3.70 Log10 CFU/mL; Viable counts, Pseudomonas aeruginosa time kill study ([9]; 5 min): <3.52 Log10 CFU/mL; Viable counts, Pseudomonas aeruginosa time kill study ([9]; time 0): 5.71 Log10 CFU/mL; Viable counts, Candida albicans time kill study ([10]; 0.5 min): 5.19 Log10 CFU/mL; Viable counts, Candida albicans time kill study ([10]; 1 min): 5.36 Log10 CFU/mL; Viable counts, Candida albicans time kill study ([10]; 5 min): 5.3 Log10 CFU/mL; Viable counts, Candida albicans time kill study ([10]; time 0): 5.23 Log10 CFU/mL; melting point: 134 to 139 °C
2 | CCCCCCCCCCCCOC(=O)C(C)NCCN(CC)CC.Cl (stereo not shown) [Nex-62, Dodecyl 2-((2-(diethylamino)ethyl)amino)propanoate dihydrochloride] | 25 | 25 | 25 | 6.25 | 6.25 | 6.25 | 12.5 | 12.5 | 12.5 | 0.73 | 5.32 | 5.21 | 5.02 | 5.27 | 100 | 100 | 100 | 6250 | 6250 | 6250 | Viable counts, Staphylococcus aureus time kill study ([7]; 0.5 min): 6.32 Log10 CFU/mL; Viable counts, Staphylococcus aureus time kill study ([7]; 1 min): 6.35 Log10 CFU/mL; Viable counts, Staphylococcus aureus time kill study ([7]; 5 min): 6.31 Log10 CFU/mL; Viable counts, Staphylococcus aureus time kill study ([7]; time 0): 6.34 Log10 CFU/mL; Viable counts, Escherichia coli time kill study ([8]; 0.5 min): 4.78 Log10 CFU/mL; Viable counts, Escherichia coli time kill study ([8]; 1 min): 5.02 Log10 CFU/mL; Viable counts, Escherichia coli time kill study ([8]; 5 min): 3.82 Log10 CFU/mL; Viable counts, Escherichia coli time kill study ([8]; time 0): 4.82 Log10 CFU/mL; Viable counts, Pseudomonas aeruginosa time kill study ([9]; 0.5 min): 4 Log10 CFU/mL; Viable counts, Pseudomonas aeruginosa time kill study ([9]; 1 min): <3.70 Log10 CFU/mL; Viable counts, Pseudomonas aeruginosa time kill study ([9]; 5 min): <3.52 Log10 CFU/mL; Viable counts, Pseudomonas aeruginosa time kill study ([9]; time 0): 5.52 Log10 CFU/mL; Viable counts, Candida albicans time kill study ([10]; 0.5 min): 5.37 Log10 CFU/mL; Viable counts, Candida albicans time kill study ([10]; 1 min): 5.18 Log10 CFU/mL; Viable counts, Candida albicans time kill study ([10]; 5 min): 5.16 Log10 CFU/mL; Viable counts, Candida albicans time kill study ([10]; time 0): 5.12 Log10 CFU/mL
